This experiment in a line: Odor detection threshold (ODT) determined using a gas chromatograph. The conditions noted are these: odor detection threshold of HIA perfume ingredient. The text has this: HIA perfume ingredients are characterized by their respective boiling point (B.P.), octanol/water partition coefficient (P) and odor detection threshold (“ODT”). The “octanol/water partition coefficient (P)” of a perfume ingredient is the ratio between its equilibrium concentrations in octanol and in water. The boiling points of many perfume ingredients, at standard pressure (760 mm Hg) are given in, e.g., “Perfume and Flavor Chemicals (Aroma Chemicals),” Steffen Arctander, published by the author.
Odor detection thresholds are determined using a gas chromotograph as disclosed in co-pending application, Browne, et al., filed Jun. 9, 2004.
Take `CC(C)=CCCC(C)C=O` (stereo not drawn) [Melonal]: the ODT entry is “≦50 ppb”.
Next, `CCCCCCCCCC=O` [Decyl Aldehyde]: “≦50 ppb”.
`C=C(C)[C@H]1CC=C(C)CC1` [d-limonene]: the ODT entry is “≧50 ppb”.
With `CC1(C)C2CC=C(CCC=O)C1C2` (stereo not drawn) [Pino Acetaldehyde], the ODT entry was “≦50 ppb”.
As for `CCCCCCC(C=O)=Cc1ccccc1` [Hexyl Cinnamic Aldehyde], the entry is “≧50 ppb”.
With `C=CCCC(=O)C1=CCCC(C)(C)C1` [Neobutenone], the ODT result was “≦50 ppb”.
Consider `C=CCOC(=O)CCCCCC` [Allyl Heptanoate], for which the ODT entry is given as “≧50 ppb”.
With `CCOC(=O)C(C)CC` (stereo not drawn) [ethyl-2-methyl butyrate], the ODT result is “≦50 ppb”.
As for `CCCCCCC=CC(=O)OC` [methyl-2-nonenoate], the ODT entry is on record as “≦50 ppb”.
As to `CC/C=C\CCO` [Beta Gamma Hexenol], the ODT result is “≧50 ppb”.
For `CCC/C=C/C=O` [Trans-2 Hexenal], the ODT result is reported as “≦50 ppb”.
Next, Natural Sinensal: “≦50 ppb”; `CC(=O)/C=C/C1=C(C)CCCC1(C)C` [Ionone Beta]: “≦50 ppb”; `CC(=O)CCc1ccc(O)cc1` [Para Hydroxy Phenyl Butanone]: “≦50 ppb”.
For `CCCCCCCC1CCC(=O)O1` (stereo not drawn) [Undecalactone], the ODT result is listed as “≧50 ppb”.
Turning to `C/C=C\C(=O)C1C(C)=CCCC1(C)C` (stereo not drawn) [Damarose Alpha], the ODT result is “≦50 ppb”.
With `CCC=CCCC=CC=O` [2-6-nonadienal], the ODT entry was “≦50 ppb”.
As for `CC(=O)OC1CCCCC1C(C)(C)C` (stereo not drawn) [Verdox], the entry is “≧50 ppb”; as for `CC1=CCC(C(C)CC2CCCC2=O)CC1` (stereo not drawn) [Nectaryl], “≧50 ppb”; as for `CCCCCCCCCC(C)C=O` (stereo not drawn) [Methyl Nonyl Acetaldehyde], “≦50 ppb”.
With `CCCCCCCCC/C=C/C=O` [Mandarin Aldehyde], the ODT entry is recorded as “≦50 ppb”.
In the case of `CC(C)=CCCC(C)CCCC(C)C=O` (stereo not drawn) [Adoxal], the ODT entry is given as “≧50 ppb”.
Turning to `CC/C=C\CCOC(C)=O` [Cis 3 Hexenyl Acetate], the ODT result is listed as “≧50 ppb”.
As for Citralva Plus, the ODT result is “≦50 ppb”.

These data come from patent US8147808B2, “Consumer noticeable improvement in wetness protection using solid antiperspirant compositions” (The Procter & Gamble Company, priority 2005, dated 2012).
